Consider one compound from ChEMBL document CHEMBL5727880, “Amide compounds as kinase inhibitors, compositions and methods of treatment” (2020).

The experiment concerns the target Rho-associated protein kinase 2 (Homo sapiens, UniProt O75116). The experiment in a line: Kinase Inhibition Assay: The following assay protocol is for measuring the phosphorylation of a peptide substrate (FAM-[…]-OH wherein FAM is carboxyfluorescein). The peptide is >98% purity by Capillary Electrophoresis. The peptide is phosphorylated by the protein kinase ROCK1 or ROCK2. The ROCK1 or ROCK2 enzyme, substrate, and cofactors (ATP and Mg2+) are combined in a well of a microtiter plate and incubated for 3 hours at 25° C. in the presence or absence of an inhibitor compound. At the end of the incubation, the reaction is quenched by the addition of an EDTA-containing buffer. The substrate and product are separated and quantified electrophoretically using the microfluidic-based LABCHIP® 3000 Drug Discovery System from Caliper Life Sciences (Hopkinton, Mass.).The components of the assay mixture are:100 mM HEPES, pH 7.50.1% BSA0.01% Triton X-1001 mM DTT10 mM MgCl210 μM Sodium Orthovanadate10 LM Beta-Glycerophosphate5 μM ATP (for ROCK1) or 7 μM ATP (for ROCK2)1% DMSO (from compound)1.25 μM FAM-[…]-OH3 nM ROCK1 or 2.5 nM ROCK2 enzymeSubstrate and product peptides present in each sample are separated electrophoretically using the LABCHIP® 3000 capillary electrophoresis instrument. As substrate and product peptides are separated two peaks of fluorescence are observed. […].

Sequence of Rho-associated protein kinase 2 (O75116 whole entry): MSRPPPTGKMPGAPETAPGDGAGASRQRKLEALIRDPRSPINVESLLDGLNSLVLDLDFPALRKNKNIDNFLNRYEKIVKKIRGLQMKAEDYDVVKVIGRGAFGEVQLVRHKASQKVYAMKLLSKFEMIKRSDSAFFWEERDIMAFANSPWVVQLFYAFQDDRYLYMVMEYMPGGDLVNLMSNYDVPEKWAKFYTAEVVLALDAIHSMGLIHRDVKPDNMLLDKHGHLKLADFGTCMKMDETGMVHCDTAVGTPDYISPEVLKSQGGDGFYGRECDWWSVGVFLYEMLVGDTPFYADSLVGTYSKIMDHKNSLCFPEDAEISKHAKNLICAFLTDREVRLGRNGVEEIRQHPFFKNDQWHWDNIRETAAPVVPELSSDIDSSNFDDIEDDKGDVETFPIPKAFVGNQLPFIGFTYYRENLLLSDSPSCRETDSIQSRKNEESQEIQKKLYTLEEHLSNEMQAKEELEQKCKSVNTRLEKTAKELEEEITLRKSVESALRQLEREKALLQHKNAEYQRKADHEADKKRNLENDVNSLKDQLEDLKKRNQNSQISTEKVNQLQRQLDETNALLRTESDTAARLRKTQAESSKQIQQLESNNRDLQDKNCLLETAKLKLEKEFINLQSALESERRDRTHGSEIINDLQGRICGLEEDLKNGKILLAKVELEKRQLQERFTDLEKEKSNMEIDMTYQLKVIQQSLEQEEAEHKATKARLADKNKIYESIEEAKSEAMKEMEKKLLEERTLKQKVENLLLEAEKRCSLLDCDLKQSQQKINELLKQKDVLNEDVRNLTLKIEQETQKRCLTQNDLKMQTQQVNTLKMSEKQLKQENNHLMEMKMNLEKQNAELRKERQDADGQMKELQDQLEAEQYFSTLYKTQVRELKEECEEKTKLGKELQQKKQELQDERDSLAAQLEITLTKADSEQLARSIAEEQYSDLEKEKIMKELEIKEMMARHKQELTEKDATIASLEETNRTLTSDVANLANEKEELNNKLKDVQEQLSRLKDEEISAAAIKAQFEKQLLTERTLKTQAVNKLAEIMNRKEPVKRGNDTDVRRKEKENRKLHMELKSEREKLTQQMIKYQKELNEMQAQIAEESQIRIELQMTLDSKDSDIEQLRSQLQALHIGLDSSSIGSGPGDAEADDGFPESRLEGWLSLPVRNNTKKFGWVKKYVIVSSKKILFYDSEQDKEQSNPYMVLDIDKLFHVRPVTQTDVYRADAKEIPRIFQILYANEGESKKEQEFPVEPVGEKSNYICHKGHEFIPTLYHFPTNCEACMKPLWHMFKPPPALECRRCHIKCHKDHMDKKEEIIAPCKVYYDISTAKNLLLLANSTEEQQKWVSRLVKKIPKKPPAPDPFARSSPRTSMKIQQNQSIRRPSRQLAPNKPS

In the case of `C[C@@H](NC(=O)c1ccc(-c2ccncc2)cc1)c1cccc(C(=O)NC2CCCC2)c1`, the IC50 was found to be 1.2 nM.
